Reference: patent publication US20110105576A1 (priority 2008, published 2011)
Read-outs that look alike come from different tables or passages of the source.

How the values were obtained:
[1] = test system: Fusarium graminearum (ear rot of maize); type: cell-based; settings: solo, 48 hrs
[2] = test system: Fusarium graminearum (ear rot of maize); type: cell-based; settings: solo, 48 hrs; remark: listed apart in the source

SMILES | Observed control in % ([1]; 0.004 ppm (mg a.i./liter final medium)) [%] | Observed control in % ([1]; 0.008 ppm) [%] | Observed control in % ([1]; 0.016 ppm) [%] | Observed control in % ([1]; 0.031 ppm) [%] | Observed control in % ([1]; 0.063 ppm) [%] | Observed control in % ([1]; 0.125 ppm) [%] | Observed control in % ([1]; 0.25 ppm) [%] | Observed control in % ([1]; 0.5 ppm) [%] | Observed control in % ([1]; 1.0 ppm) [%] | Observed control in % ([1]; 2.0 ppm) [%] | Observed control in % ([2]; 0.008 ppm) [%] | Observed control in % ([2]; 0.25 ppm) [%] | Observed control in % ([2]; 0.5 ppm) [%] | Observed control in % ([2]; 2.0 ppm) [%]
CCCN(CCOc1c(Cl)cc(Cl)cc1Cl)C(=O)n1ccnc1 [A, prochloraz] | 0 | 3 | 6 | 11 | 25 | 86 | 94 | 96 | 96 | 96 | – | – | – | –
CC1(C)CCC(Cc2ccc(Cl)cc2)C1(O)Cn1cncn1 (stereo not drawn) [B, metconazole] | – | 3 | – | – | – | – | 93 | 95 | – | 96 | 3 | 93 | 95 | 96
